The subject of experiment [1] is GR translocation in RN46A-B14 cells. The experiment is described as follows: DEX-induced GR-GFP translocation, high-content imaging. It counts as cell-based, rat. The note with it: 2.5 μM for 1 hour, then 1 μM DEX 30 min, p<0.05 vs. vehicle.
Experiment [2] has as its system plasma corticosterone (HPA axis). The experiment is described as follows: Combined DEX/CRF test, plasma corticosterone. The experiment is classed as in vivo, mouse.
Experiment [3] has as its system histone acetylation in brain. Conditions: at the dose used in present study (5 mg/kg i.p.); cited from earlier work.
Experiment [4] relates to Hsp90 / α-tubulin acetylation and Hsp90-FKBP51/52 association. As to the kind of experiment: Co-immunoprecipitation and acetylation blots in RN46 serotonin cell line. It counts as cell-based, rat. Conditions: 2.5 uM, RN46 cells, vs vehicle.

For the compound `CN1CCc2c(c3ccccc3n2Cc2ccc(C(=O)NO)cc2)C1` [Tubastatin A], in experiment [1], the “GR translocation induced by dexamethasone” value is “significantly reduced”.
Regarding `O=C(NO)c1cnc(NC2(c3ccccc3)CC2)nc1` [ACY-738], the “CORT response following DEX/CRF challenge” value in experiment [2] (chronic ACY-738 treatment, data not shown) is “did not alter”. Further, the “histone acetylation in brain” value in experiment [3] is given as “does not elevate”. Besides, in experiment [4] (co-IP), the “association of Hsp90 with FKBP51” value was “increased association” and the “interaction of Hsp90 with FKBP52” value is “reduced interaction”. Besides, the “acetylation of α-tubulin” value in experiment [4] (input samples) is on record as “increase”. For the same compound, in experiment [4], the “acetylation of Hsp90 at lysine 294” value was “increased acetylation”. In addition, in experiment [1], the “GR translocation induced by dexamethasone” value is given as “significantly reduced”.
In the case of `C[C@@H]1C[C@H]2[C@@H]3CCC4=CC(=O)C=C[C@]4(C)[C@@]3(F)[C@@H](O)C[C@]2(C)[C@@]1(O)C(=O)CO` [dexamethasone], the “percent change in plasma corticosterone, resilient mice” value in experiment [2] (6 hours after DEX 0.05 mg/kg, CSDS resilient mice) was −34%. Further, in experiment [2] (6 hours after DEX 0.05 mg/kg, undefeated control mice), the “percent change in plasma corticosterone, control mice” value is on record as −13%.
